{
  "source": "patent US5929038A",
  "about": "“Pharmaceutical preparations which inhibit hepatitis B virus (HBV) replication” (Choongwae Pharmaceutical Co., Ltd., priority 1992, dated 1999)",
  "origin": "cited, not measured here",
  "key": {"[1]": {"system": "beagle dogs intoxicated by toxic mushroom extracts", "conditions": "cited from earlier work"}, "[2]": {"system": "toxic Amanita mushrooms' poisoning", "conditions": "in vivo; cited from earlier work"}},
  "data": [
    {"smiles": "OCC1=CC(O)C2C=COC(O[C@@H]3O[C@H](CO)[C@@H](O)[C@H](O)[C@H]3O)C12", "note": "(stereo partly drawn) [Aucubin, 1,4,5, 7α-tetrahydro-5-hydroxy-17-(hydroxymethyl)cyclopenta[c]pyran-1-yl-β-D-glucopyranose]", "values": [
      {"measurement": "antidotal activity", "setting": "[1]", "value": "potent antidotal activity"},
      {"measurement": "Detoxification activity", "setting": "[2]", "value": "detoxifies toxic Amanita mushrooms' poisoning"}
    ]}
  ]
}
